Read-outs that look alike come from different tables or passages of the source. Non-standard residues stand in square brackets, D forms with d. Residues, ends and D or L forms follow the SMILES beside them. dNMe2Nal = CN[C@H](Cc1ccc2ccccc2c1)C(=O)O; d2Nal = N[C@H](Cc1ccc2ccccc2c1)C(=O)O; d(hPhe) = N[C@H](CCc1ccccc1)C(=O)O; Tic = O=C(O)[C@@H]1Cc2ccccc2CN1; Ac6c = NC1(C(=O)O)CCCCC1; Inp = O=C(O)C1CCNCC1; Ahx = NCCCCCC(=O)O; Ava = NCCCCC(=O)O; GABA = NCCCC(=O)O

Here are results for 16 compounds from patent US7094869B2, “Low molecular weight peptidomimetic growth hormone secretagogues” (Genentech, Inc., priority 1994, dated 2006).

The target of one assay is rat pituitary cells (Rattus norvegicus, UniProt O08725). On the procedure:
Pituitaries from ten rats were removed, the posterior pituitary discarded and the anterior pituitary placed in Hanks' Balanced Salt Solution (HBSS: without calcium chloride, w/o magnesium chloride, w/o magnesium sulfate; Gibco) containing 20 mM HEPES (Gibco) and 100 U/ml penicillin streptomycin (PS: JRH Biosciences). Under sterile conditions, pituitaries were rinsed twice then minced into small fragments with a razor blade. […] After the incubation, fragments were triturated to yield small clumps and single cells. The cells were centrifuged 1000× g for 5 min, resuspended, counted and plated at a final cell concentration of 100,000 cells/ml. Incubation media was DME low glucose media w/NaHCO3 (Gibco) containing 20 mM hepes, 100 U/ml PS and 10% FBS (Hyclone A-111-L). Cells were plated at 0.5 ml per well in 48 well plates (Falcon) and incubated at 37° C. in 5% C02 for three days. For challenges to determine release of other pituitary hormones cells were plated at 200,000 cells per ml with 2 ml per well of a Swell plate (Corning). Challenge: A (inip)bbFK-NH2 stock (or other GHRP) concentration of 1 mM was made in DMSO and diluted with warmed media approximately 30 min prior to use. The highest concentration of DMSO in media was 0.1%. Stock solutions (1 mM) of rat GHRH, somatostatin (Sigma) and GHRP antagonist HwkWfK were made fresh in media and diluted appropriately. The media used in all challenges and washing steps was DME low glucose with 20 mM Hepes, 100 U/ml PS, 10% FBS. Media was warmed to 37° C. and gassed by placing it into the incubator prior to challenge. On day three, the media was discarded and fresh media (approximately 1 ml) added for the first of three washes. After the last wash, the plate was placed back in the incubator for a 15 min pre-incubation. Then cells were washed 2× (with warmed and gassed media) and fresh 0.5 ml media were added for the second 15 min. pre-incubation. After the second pre-incubation cells were washed 2× as above and 0.5 ml of control and test solutions were added for a final 15 min incubation. After this incubation, the media were removed for subsequent GH ELISA. GH ELISA: A two-site ELISA was used to determine rat GH concentration in the media. […] After blocking and washing, standard (rat GH reference preparation: Parlow) and challenge media is diluted 1:20 prior to GH assay were added for a 1 hr room temperature incubation. STATISTICS: The mean for each group was determined and analyzed by one-way analysis of variance with a post-hoc Student-Newman-Keuls. Significance is defined as P<0.05. The EC50 was calculated using a 4-parameter curve-fit program (Kaleidagraph). Three to four independent EC50s were used to derive the mean and SEM. RIA of pituitary hormones: LH, FSH, TSH, and Prolactin were determined with commercially available kits from Amersham, and ACTH levels were determined by a RIA kit from ICN. CALCIUM FLUX EXPERIMENT: Pituitary cells were plated on fibronectin (Collaborative Research) coated two-chambered slide wells (Nunc). After four days in monolayer culture cells were rinsed three times with HBSS (Gibco) in 1% BSA and 15 mM HEPES and then incubated for 30 min at 37° C. with 5 μM Indo-1 AM (Molecular Probes, Eugene) in HBSS also containing 1% pluronic F127 (Molecular Probes). The cells were rinsed once and fresh media added for RT incubation. […] C^++ flux was imaged with a Meridian ACAS 570 using stage scanning at 21 second intervals.

In another assay the test system is growth hormone secretion. Put plainly: GHRP induced growth hormone secretion, intravenous administration (Rat IV). The assay is classed as in vivo. The note with it: iv injection, serum GH 10 min after injection. The method, then: Immature weanling female Sprague Dawley rats were purchased from Charles River Labs (Portage, […].) and group housed with water and food available ad libitum. When the rats were 24-30 days old (weighing 50-90 g) they were anesthetized with pentobarbitone (4 mg in 0.5 ml, approximately 60 mg/kg) given by intraperitoneal injection. The rats were then placed briefly on a heated pad, to distend their tail veins, and given an intravenous tail vein injection of the peptides 20 minutes after receiving the anesthetic. The intravenous injection was of 0.1 ml using a 1 ml syringe. The injections contained graded doses of peptides or the vehicle (vehicle for all peptides given intravenously was a buffer of 20 mM sodium acetate, 45 g/l mannitol, pH 5.0). Ten minutes after the intravenous injection blood was taken by cardiac puncture, using a 3 ml syringe, and the rats were then sacrificed.
The blood was then clotted on ice, centrifuged, serum decanted and frozen for subsequent analysis using the rat GH ELISA described elsewhere in the application. For the rat GH ELISA the serum was diluted 1:50 or 1:250, depending on the expected serum GH concentrations achieved, and assayed in duplicate.

[1] abbreviates: read-out: PIT Cell EC50, Table IV, formula III compounds, GH release, 15 min incubation.

Chain of rat pituitary cells (O08725 whole entry, the tested form may be a part): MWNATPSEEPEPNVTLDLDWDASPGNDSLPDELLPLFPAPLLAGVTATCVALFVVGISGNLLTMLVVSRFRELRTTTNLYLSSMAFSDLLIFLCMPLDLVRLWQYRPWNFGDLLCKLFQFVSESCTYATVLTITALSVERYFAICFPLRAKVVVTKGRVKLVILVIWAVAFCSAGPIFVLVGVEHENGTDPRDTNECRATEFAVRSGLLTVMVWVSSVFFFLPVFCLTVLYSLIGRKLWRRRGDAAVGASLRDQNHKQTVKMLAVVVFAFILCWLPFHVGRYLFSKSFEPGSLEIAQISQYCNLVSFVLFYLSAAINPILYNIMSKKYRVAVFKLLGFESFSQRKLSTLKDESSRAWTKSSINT

`NCCCCC(=O)N[C@H](Cc1ccccc1)C(=O)N[C@H](Cc1c[nH]c2ccccc12)C(=O)N[C@@H](Cc1ccccc1)C(N)=O` [(Ava) f w F amide] (H-[Ava][dF][dW]F-NH2): at rat pituitary cells (setting [1]), the EC50 is more than 0.3 µM. Moreover, the “RAT IV ED50” value in the assay with growth hormone secretion (Table IV) stood at 1000 µg.
Turning to `NCCCCCC(=O)N[C@H](Cc1ccc2ccccc2c1)C(=O)N[C@H](Cc1ccc2ccccc2c1)C(=O)N[C@@H](Cc1ccccc1)C(=O)N[C@@H](CCCCN)C(N)=O` [(ahx) b b F K amide] (H-[Ahx][d2Nal][d2Nal]FK-NH2), the “RAT IV ED50” value in the assay with growth hormone secretion (Table III) worked out at 250 µg.
Turning to `NC(=O)[C@@H]1Cc2ccccc2CN1C(=O)[C@@H](Cc1ccc2ccccc2c1)NC(=O)[C@@H](Cc1ccc2ccccc2c1)NC(=O)C1CCNCC1` [(inip) b b (Tic) amide] (H-[Inp][d2Nal][d2Nal][Tic]-NH2), the “RAT IV ED50” value with growth hormone secretion (Table IV) was found to be 10 µg.
As to `CN(C)C(=O)C(Cc1ccccc1)NC(=O)[C@@H](Cc1ccc2ccccc2c1)NC(=O)[C@@H](Cc1ccc2ccccc2c1)NC(=O)C1CCNCC1` (single isomer, unassigned) [(inip) b b F dam], in the assay on growth hormone secretion (Table III), the “RAT IV ED50” value came out at 10 µg.
Turning to `NC(=O)CCCNC(=O)[C@@H](Cc1ccc2ccccc2c1)NC(=O)[C@@H](Cc1ccc2ccccc2c1)NC(=O)C1CCNCC1` [(inip) b b ab amide] (H-[Inp][d2Nal][d2Nal][GABA]-NH2; N-terminus assumed), the “RAT IV ED50” value in the assay with growth hormone secretion (Table IV) is 10 µg.
As for `NCCCCCNC(=O)[C@@H](Cc1ccc2ccccc2c1)NC(=O)[C@@H](Cc1ccc2ccccc2c1)NC(=O)C1CCNCC1` [(inip) b b pam], the EC50 at rat pituitary cells (setting [1]) was 0.043 µM.
For the compound `NC1CCN(C(=O)[C@@H](Cc2ccc3ccccc3c2)NC(=O)[C@@H](Cc2ccc3ccccc3c2)NC(=O)C2CCNCC2)CC1` [(inip) b b apc], the EC50 at rat pituitary cells (setting [1]) is 0.039 µM.
Consider `NC(=O)[C@H](Cc1ccccc1)NC(=O)C1(NC(=O)[C@@H](Cc2ccc3ccccc3c2)NC(=O)C2CCNCC2)CCCCC1` [(inip) b Abx F amide] (H-[Inp][d2Nal][Ac6c]F-NH2), for which, at rat pituitary cells (setting [1]), the EC50 was more than 0.1 µM.
On the same count and under the same terms, the same measure for `NC(=O)[C@H](Cc1ccccc1)NC(=O)[C@@H](Cc1ccccc1)NC(=O)[C@@H](Cc1ccc2ccccc2c1)NC(=O)C1CCNCC1` [(inip) b f F amide] (H-[Inp][d2Nal][dF]F-NH2): 0.079 µM; for `NC(=O)[C@H](Cc1ccccc1)NC(=O)[C@@H](CCc1ccccc1)NC(=O)[C@@H](CCc1ccccc1)NC(=O)C1CCNCC1` [(inip) hf hf F amide] (H-[Inp][d(hPhe)][d(hPhe)]F-NH2): more than 1 µM.
`NCCCNC(=O)[C@H](Cc1ccc2ccccc2c1)NC(=O)[C@H](Cc1ccc2ccccc2c1)NC(=O)[C@@H](Cc1ccc2ccccc2c1)NC(=O)CCCN` [(Ab) b B B ram]: at rat pituitary cells (read-out: mean EC50, mean ± SE of independent EC50s), the EC50 was found to be 0.002 µM.
Turning to `CN[C@H](Cc1ccc2ccccc2c1)C(=O)N[C@H](Cc1ccc2ccccc2c1)C(=O)N[C@@H](Cc1ccc(O)cc1)C(=O)N[C@@H](CCCCN)C(N)=O` [nmb b Y K amide] (H-[dNMe2Nal][d2Nal]YK-NH2), the “RAT IV ED50” value in the assay on growth hormone secretion (Table III) was found to be 500 µg.
Compound `NC(=O)[C@H](Cc1ccccc1)NC(=O)[C@@H](Cc1c[nH]c2ccccc12)NC(=O)[C@@H](Cc1c[nH]c2ccccc12)NC(=O)[C@@H](N)Cc1ccc(O)cc1` [Y w w F amide, reference compound] (H-Y[dW][dW]F-NH2) gave an EC50 on rat pituitary cells of 1 µM.
In the case of `NCCCC[C@H](NC(=O)[C@H](Cc1ccc(O)cc1)NC(=O)[C@@H](Cc1ccc2ccccc2c1)NC(=O)[C@@H](Cc1ccc2ccccc2c1)NC(=O)C1CCNCC1)C(N)=O` [(inip) b b Y K amide] (H-[Inp][d2Nal][d2Nal]YK-NH2), on rat pituitary cells (read-out: PIT Cell EC50, Table III, formula IV compounds, GH release, 15 min incubation), the EC50 was 0.0002 µM.
For the compound `O=C(N[C@@H](Cc1ccc2ccccc2c1)C(=O)N[C@@H](Cc1ccc2ccccc2c1)C(=O)NC1CCNCC1)C1CCNCC1` [(inip) B B api], on rat pituitary cells (read-out: PIT Cell EC50, Table VI, retroinverso compounds of formula V, GH release, 15 min incubation), the EC50 amounted to 0.096 µM.
Take `NCCCC[C@H](NC(=O)[C@H](Cc1ccccc1)NC(=O)[C@@H](Cc1c[nH]c2ccccc12)NC(=O)[C@@H](Cc1ccc2ccccc2c1)NC(=O)C1CCNCC1)C(N)=O` [(inip) b w F K amide] (H-[Inp][d2Nal][dW]FK-NH2): the “RAT IV ED50” value in the assay on growth hormone secretion (Table III) worked out at 0.070 µg.
